Data published in the supplement of paper PMC10883282.
± gives the standard deviation of the averaged measurements.

Legend:
Assay in all cases: relative viability vs DMSO control (72 h) (fraction); higher = more viable cells
[1] = system: KHOS-240S
Method in brief: (§1)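 After seeding at densities set for 80–90% confluence in 384-well plates, sarcoma cell lines waited 24 h before 2.5 µl of serially diluted compound was added. Source plates held 10 mM down to 0.0002 mM. Plates were incubated 72 h at 37 °C with 5% CO2, with 0.1% DMSO vehicle and a 5 µM positive control, and relative viability was taken from ATPLite as percent growth averaged over up to triplicate wells, with 1 set as full and 0 as none.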

[2] = system: SW872
Method in brief: as §1

[3] = system: A204
Method in brief: as §1

[4] = system: SK-LMS-1
Method in brief: as §1

[5] = system: SYO-1
Method in brief: as §1

[6] = system: SK-ES-1
Method in brief: as §1

[7] = system: HS729
Method in brief: as §1

[8] = system: SW982
Method in brief: as §1

[9] = system: SW1353
Method in brief: as §1

[10] = system: G401
Method in brief: as §1

[11] = system: MES-SA
Method in brief: as §1

[12] = system: SW684
Method in brief: as §1

CCN(CC)CCNC(=O)c1c(C)[nH]c(/C=C2\C(=O)Nc3ccc(F)cc32)c1C [Sunitinib]
Conditions | relative viability
[1], 0.00017 µM | 1.06 ± 0.046
[1], 0.00051 µM | 1.06 ± 0.04
[1], 0.00152 µM | 1.05 ± 0.058
[1], 0.00457 µM | 1.05 ± 0.056
[1], 0.01372 µM | 1.04 ± 0.027
[1], 0.04115 µM | 1.03 ± 0.045
[1], 0.1235 µM | 0.958 ± 0.035
[1], 0.3704 µM | 0.875 ± 0.038
[1], 1.111 µM | 0.655 ± 0.038
[1], 3.333 µM | 0.204 ± 0.015
[1], 10 µM | 0.0104 ± 0.0027
[2], 0.00017 µM | 1.04 ± 0.051
[2], 0.00051 µM | 1.05 ± 0.048
[2], 0.00152 µM | 1.03 ± 0.029
[2], 0.00457 µM | 1.03 ± 0.04
[2], 0.01372 µM | 1.04 ± 0.097
[2], 0.04115 µM | 1.02 ± 0.1
[2], 0.1235 µM | 0.993 ± 0.11
[2], 0.3704 µM | 0.81 ± 0.038
[2], 1.111 µM | 0.587 ± 0.033
[2], 3.333 µM | 0.416 ± 0.035
[2], 10 µM | -0.00493 ± 0.0014
[3], 0.00017 µM | 1.06 ± 0.052
[3], 0.00051 µM | 1.03 ± 0.073
[3], 0.00152 µM | 1.01 ± 0.043
[3], 0.00457 µM | 0.96 ± 0.035
[3], 0.01372 µM | 0.795 ± 0.026
[3], 0.04115 µM | 0.516 ± 0.043
[3], 0.1235 µM | 0.425 ± 0.046
[3], 0.3704 µM | 0.363 ± 0.031
[3], 1.111 µM | 0.318 ± 0.017
[3], 3.333 µM | 0.206 ± 0.01
[3], 10 µM | 0.00297 ± 0.0012
[4], 0.00017 µM | 1.11 ± 0.036
[4], 0.00051 µM | 1.13 ± 0.04
[4], 0.00152 µM | 1.08 ± 0.041
[4], 0.00457 µM | 1.07 ± 0.038
[4], 0.01372 µM | 1.12 ± 0.026
[4], 0.04115 µM | 1.1 ± 0.016
[4], 0.1235 µM | 1.09 ± 0.015
[4], 0.3704 µM | 1.02 ± 0.011
[4], 1.111 µM | 0.884 ± 0.041
[4], 3.333 µM | 0.706 ± 0.025
[4], 10 µM | 0.0084 ± 0.00053
[5], 0.00017 µM | 0.952 ± 0.013
[5], 0.00051 µM | 0.9234 ± 0.0033
[5], 0.00152 µM | 0.886 ± 0.025
[5], 0.00457 µM | 0.813 ± 0.034
[5], 0.01372 µM | 0.706 ± 0.069
[5], 0.04115 µM | 0.665 ± 0.057
[5], 0.1235 µM | 0.601 ± 0.038
[5], 0.3704 µM | 0.494 ± 0.077
[5], 1.111 µM | 0.406 ± 0.079
[5], 3.333 µM | -0.00767 ± 0.0015
[5], 10 µM | -0.00903 ± 0.0015
[6], 0.00017 µM | 0.997 ± 0.022
[6], 0.00051 µM | 0.996 ± 0.05
[6], 0.00152 µM | 1.08 ± 0.037
[6], 0.00457 µM | 1.04 ± 0.024
[6], 0.01372 µM | 1.02 ± 0.021
[6], 0.04115 µM | 0.97 ± 0.014
[6], 0.1235 µM | 0.931 ± 0.019
[6], 0.3704 µM | 0.578 ± 0.03
[6], 1.111 µM | 0.215 ± 0.0073
[6], 3.333 µM | 0.018 ± 0.0024
[6], 10 µM | 0.0034 ± 0.00035
[7], 0.00017 µM | 0.928 ± 0.021
[7], 0.00051 µM | 0.877 ± 0.036
[7], 0.00152 µM | 0.835 ± 0.021
[7], 0.00457 µM | 0.819 ± 0.045
[7], 0.01372 µM | 0.799 ± 0.01
[7], 0.04115 µM | 0.761 ± 0.061
[7], 0.1235 µM | 0.731 ± 0.053
[7], 0.3704 µM | 0.68 ± 0.024
[7], 1.111 µM | 0.518 ± 0.022
[7], 3.333 µM | 0.268 ± 0.012
[7], 10 µM | 0.0045 ± 0.00087
[8], 0.00017 µM | 1.06 ± 0.054
[8], 0.00051 µM | 1.07 ± 0.047
[8], 0.00152 µM | 1.07 ± 0.062
[8], 0.00457 µM | 1.05 ± 0.027
[8], 0.01372 µM | 1.05 ± 0.063
[8], 0.04115 µM | 1.07 ± 0.021
[8], 0.1235 µM | 1.02 ± 0.047
[8], 0.3704 µM | 0.716 ± 0.0084
[8], 1.111 µM | 0.413 ± 0.0048
[8], 3.333 µM | 0.0113 ± 0.00078
[8], 10 µM | 0.00423 ± 0.00012
[9], 0.00017 µM | 0.978 ± 0.023
[9], 0.00051 µM | 0.994 ± 0.059
[9], 0.00152 µM | 0.968 ± 0.067
[9], 0.00457 µM | 0.984 ± 0.031
[9], 0.01372 µM | 0.951 ± 0.059
[9], 0.04115 µM | 0.972 ± 0.03
[9], 0.1235 µM | 0.981 ± 0.03
[9], 0.3704 µM | 1 ± 0.017
[9], 1.111 µM | 0.988 ± 0.075
[9], 3.333 µM | 0.017 ± 0.0068
[9], 10 µM | 0.0071 ± 0.0002
[10], 0.00017 µM | 1.01 ± 0.0098
[10], 0.00051 µM | 0.984 ± 0.014
[10], 0.00152 µM | 0.982 ± 0.013
[10], 0.00457 µM | 0.99 ± 0.017
[10], 0.01372 µM | 0.999 ± 0.023
[10], 0.04115 µM | 0.996 ± 0.01
[10], 0.1235 µM | 0.959 ± 0.0094
[10], 0.3704 µM | 0.98 ± 0.068
[10], 1.111 µM | 0.892 ± 0.032
[10], 3.333 µM | 0.628 ± 0.036
[10], 10 µM | 0.00473 ± 0.00025
[11], 0.00017 µM | 0.911 ± 0.02
[11], 0.00051 µM | 0.927 ± 0.056
[11], 0.00152 µM | 0.95 ± 0.032
[11], 0.00457 µM | 0.917 ± 0.046
[11], 0.01372 µM | 0.929 ± 0.011
[11], 0.04115 µM | 0.905 ± 0.018
[11], 0.1235 µM | 0.917 ± 0.036
[11], 0.3704 µM | 0.83 ± 0.05
[11], 1.111 µM | 0.578 ± 0.023
[11], 3.333 µM | 0.305 ± 0.024
[11], 10 µM | -0.00247 ± 0.0005
[12], 0.00017 µM | 1.17 ± 0.031
[12], 0.00051 µM | 1.16 ± 0.023
[12], 0.00152 µM | 1.18 ± 0.019
[12], 0.00457 µM | 1.15 ± 0.035
[12], 0.01372 µM | 1.144 ± 0.0071
[12], 0.04115 µM | 1.17 ± 0.063
[12], 0.1235 µM | 1.181 ± 0.0061
[12], 0.3704 µM | 1.07 ± 0.04
[12], 1.111 µM | 0.871 ± 0.019
[12], 3.333 µM | 0.609 ± 0.029
[12], 10 µM | 0.001 ± 0.0098
